# Source: patent publication US7868135B2, “Compositions of lipopeptide antibiotic derivatives and methods of use thereof” (priority 2003, dated 2011)
# Starred links: 1 amine or outer side, 2 acyl side, 3 side chain; linkers in the order of their positions; H or OH if unused. Positions of bridges follow the written chain, without caps; N, C: chain ends. Non-standard residues stand in square brackets, D forms with d. Residues, ends and D or L forms follow the SMILES beside them. ξ: configuration not given here. *: point of attachment. X37 = CC(NC(=O)[C@@H](N)CCCCN)C(N[*:1])C(=O)[*:2]; Benzoyl(4-OC10H21) = CCCCCCCCCCOc1ccc(C(=O)*)cc1; Hexadecanesulfonyl = CCCCCCCCCCCCCCCCS(=O)(=O)*; ξAbu(3ξ-NHCOCH2NH2) = CC(NC(=O)CN)C(N)C(=O)O; ξAbu(βξ-NH2) = CC(N[*:3])C(N[*:1])C(=O)[*:2]; Phac(3-amino) = O=C(Cc1cccc(N[*:1])c1)[*:2]; Pentadecanoyl = CCCCCCCCCCCCCCC(=O)*; Stearoyl = CCCCCCCCCCCCCCCCCC(=O)*; ξAsp(βξ-Me) = CC(C(=O)O)C(N)C(=O)O; Palmitoyl = CCCCCCCCCCCCCCCC(=O)*; X2 = O=C(CCc1ccc(N[*:1])cc1)[*:2]; X1 = O=C(Cc1ccc(N[*:1])cc1)[*:2]; Myristoyl = CCCCCCCCCCCCCC(=O)*; ξAbu(3ξ-NH2) = CC(N)C(N)C(=O)O; Lauroyl = CCCCCCCCCCCC(=O)*; Decanoyl = CCCCCCCCCC(=O)*; X19 = CCCCCCCCCCS(=O)(=O)*; Octanoyl = CCCCCCCC(=O)*; Pip = O=C(O)[CH]1CCCCN1; ξD = NC(CC(=O)O)C(=O)O; ξPip = O=C(O)C1CCCCN1; ξV = CC(C)C(N)C(=O)O; ξP = O=C(O)C1CCCN1; OtBu = CC(C)(C)O*
# Tested on: Staphylococcus aureus (MSSA)
# Conditions: 24 h
# Summary of the method: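 Broth microdilution MIC per NCCLS M7-A6 with doubling serial dilutions, in cation-adjusted Mueller-Hinton broth supplemented with 0.625 mM calcium.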
row,Structure (SMILES),MIC [µg/mL]
1,"CCCCCCCCCCCCCCCCS(=O)(=O)NCC(=O)NC(CC(=O)O)C(=O)NC1C(=O)N2CCCCC2C(=O)NC(C(C)C(=O)O)C(=O)NC(CC(=O)O)C(=O)NCC(=O)NC(CC(=O)O)C(=O)NCC(=O)NC(C(C)N)C(=O)NC(C(C)C)C(=O)N2CCCC2C(=O)NC1C (stereo not drawn) [Compound 99, CH3—(CH2)15—SO2-Gly-Amphomycin] (Hexadecanesulfonyl-GD[ξAbu(βξ-NH2)][Pip][ξAsp(βξ-Me)]DGDG[ξAbu(3ξ-NH2)]VP; lactam 3-C; configuration not given here)",0.5 to 1
2,"CCCCCCCCCCS(=O)(=O)N[C@@H](Cc1ccccc1)C(=O)NC(CC(=O)O)C(=O)NC1C(=O)N2CCCCC2C(=O)NC(C(C)C(=O)O)C(=O)NC(CC(=O)O)C(=O)NCC(=O)NC(CC(=O)O)C(=O)NCC(=O)NC(C(C)N)C(=O)NC(C(C)C)C(=O)N2CCCC2C(=O)NC1C (stereo partly drawn) [Compound 100, CH3—(CH2)9—SO2-Phe-Amphomycin] (X19-F[ξD][ξAbu(βξ-NH2)][ξPip][ξAsp(βξ-Me)][ξD]G[ξD]G[ξAbu(3ξ-NH2)][ξV][ξP]; lactam 3-C)",4
3,"CCCCCCCCCCS(=O)(=O)NCC(=O)NC(CC(=O)O)C(=O)NC1C(=O)N2CCCCC2C(=O)NC(C(C)C(=O)O)C(=O)NC(CC(=O)O)C(=O)NCC(=O)NC(CC(=O)O)C(=O)NCC(=O)NC(C(C)NC(=O)[C@@H](N)CCCCN)C(=O)NC(C(C)C)C(=O)N2CCCC2C(=O)NC1C (stereo partly drawn) [Compound 101, CH3—(CH2)9—SO2-Gly-Amphomycin-9-Lys] (X19-G[ξD][ξAbu(βξ-NH2)][ξPip][ξAsp(βξ-Me)][ξD]G[ξD]G[X37][ξV][ξP]; lactam 3-C)",32
4,"CCCCCCCCCCS(=O)(=O)NCC(=O)NC(CC(=O)O)C(=O)NC1C(=O)N2CCCCC2C(=O)NC(C(C)C(=O)O)C(=O)NC(CC(=O)O)C(=O)NCC(=O)NC(CC(=O)O)C(=O)NCC(=O)NC(C(C)NC(=O)CN)C(=O)NC(C(C)C)C(=O)N2CCCC2C(=O)NC1C (stereo not drawn) [Compound 102, CH3—(CH2)9—SO2-Gly-Amphomycin-9-Gly] (X19-GD[ξAbu(βξ-NH2)][Pip][ξAsp(βξ-Me)]DGDG[ξAbu(3ξ-NHCOCH2NH2)]VP; lactam 3-C; configuration not given here)",8
5,"CCCCCCCCCCCC(=O)NCC(=O)NC(CC(=O)O)C(=O)NC1C(=O)N2CCCCC2C(=O)NC(C(C)C(=O)O)C(=O)NC(CC(=O)O)C(=O)NCC(=O)NC(CC(=O)O)C(=O)NCC(=O)NC(C(C)N)C(=O)NC(C(C)C)C(=O)N2CCCC2C(=O)NC1C (stereo not drawn) [Compound 103, C12-Gly-Amphomycin] (Lauroyl-GD[ξAbu(βξ-NH2)][Pip][ξAsp(βξ-Me)]DGDG[ξAbu(3ξ-NH2)]VP; lactam 3-C; configuration not given here)",8 to 16
6,"CCCCCCCC(=O)Nc1ccc(CC(=O)NC(CC(=O)O)C(=O)NC2C(=O)N3CCCCC3C(=O)NC(C(C)C(=O)O)C(=O)NC(CC(=O)O)C(=O)NCC(=O)NC(CC(=O)O)C(=O)NCC(=O)NC(C(C)N)C(=O)NC(C(C)C)C(=O)N3CCCC3C(=O)NC2C)cc1 (stereo not drawn) [Compound 104, C8-(p-Apa)-Amphomycin] (Octanoyl-[X1]D[ξAbu(βξ-NH2)][Pip][ξAsp(βξ-Me)]DGDG[ξAbu(3ξ-NH2)]VP; lactam 3-C; configuration not given here)",2
7,"CCCCCCCCCCCCCC(=O)NCC(=O)NC(CC(=O)O)C(=O)NC1C(=O)N2CCCCC2C(=O)NC(C(C)C(=O)O)C(=O)NC(CC(=O)O)C(=O)NCC(=O)NC(CC(=O)O)C(=O)NCC(=O)NC(C(C)N)C(=O)NC(C(C)C)C(=O)N2CCCC2C(=O)NC1C (stereo not drawn) [Compound 105, C14-Gly-Amphomycin] (Myristoyl-GD[ξAbu(βξ-NH2)][Pip][ξAsp(βξ-Me)]DGDG[ξAbu(3ξ-NH2)]VP; lactam 3-C; configuration not given here)",0.5
8,"CCCCCCCCCCCCCCCC(=O)NCC(=O)NC(CC(=O)O)C(=O)NC1C(=O)N2CCCCC2C(=O)NC(C(C)C(=O)O)C(=O)NC(CC(=O)O)C(=O)NCC(=O)NC(CC(=O)O)C(=O)NCC(=O)NC(C(C)N)C(=O)NC(C(C)C)C(=O)N2CCCC2C(=O)NC1C (stereo not drawn) [Compound 106, C16-Gly-Amphomycin] (Palmitoyl-GD[ξAbu(βξ-NH2)][Pip][ξAsp(βξ-Me)]DGDG[ξAbu(3ξ-NH2)]VP; lactam 3-C; configuration not given here)",0.5
9,"CCCCCCCCCCCCCCCCCC(=O)NCC(=O)NC(CC(=O)O)C(=O)NC1C(=O)N2CCCCC2C(=O)NC(C(C)C(=O)O)C(=O)NC(CC(=O)O)C(=O)NCC(=O)NC(CC(=O)O)C(=O)NCC(=O)NC(C(C)N)C(=O)NC(C(C)C)C(=O)N2CCCC2C(=O)NC1C (stereo not drawn) [Compound 107, C18-Gly-Amphomycin] (Stearoyl-GD[ξAbu(βξ-NH2)][Pip][ξAsp(βξ-Me)]DGDG[ξAbu(3ξ-NH2)]VP; lactam 3-C; configuration not given here)",2
10,"CCCCCCCCCCOc1ccc(C(=O)NCC(=O)NC(CC(=O)O)C(=O)NC2C(=O)N3CCCCC3C(=O)NC(C(C)C(=O)O)C(=O)NC(CC(=O)O)C(=O)NCC(=O)NC(CC(=O)O)C(=O)NCC(=O)NC(C(C)N)C(=O)NC(C(C)C)C(=O)N3CCCC3C(=O)NC2C)cc1 (stereo not drawn) [Compound 110, CH3—(CH2)9—O-p-Ph-C(═O)-Gly-Amphomycin] ({Benzoyl(4-OC10H21)}-GD[ξAbu(βξ-NH2)][Pip][ξAsp(βξ-Me)]DGDG[ξAbu(3ξ-NH2)]VP; lactam 3-C; configuration not given here)",0.5
11,"CCCCCCCCCCCC(=O)Nc1cccc(CC(=O)NC(CC(=O)O)C(=O)NC2C(=O)N3CCCCC3C(=O)NC(C(C)C(=O)O)C(=O)NC(CC(=O)O)C(=O)NCC(=O)NC(CC(=O)O)C(=O)NCC(=O)NC(C(C)N)C(=O)NC(C(C)C)C(=O)N3CCCC3C(=O)NC2C)c1 (stereo not drawn) [Compound 111, C12-(M-Apa)-Amphomycin] (Lauroyl-[Phac(3-amino)]D[ξAbu(βξ-NH2)][Pip][ξAsp(βξ-Me)]DGDG[ξAbu(3ξ-NH2)]VP; lactam 3-C; configuration not given here)",0.5 to 1
12,"CCCCCCCCCCCCCCC(=O)N[C@@H](CC(=O)OC(C)(C)C)C(=O)NC(CC(=O)O)C(=O)NC1C(=O)N2CCCCC2C(=O)NC(C(C)C(=O)O)C(=O)NC(CC(=O)O)C(=O)NCC(=O)NC(CC(=O)O)C(=O)NCC(=O)NC(C(C)N)C(=O)NC(C(C)C)C(=O)N2CCCC2C(=O)NC1C (stereo partly drawn) [Compound 112, C15-[Asp-(OtBu)]-Amphomycin] (Pentadecanoyl-D(OtBu)[ξD][ξAbu(βξ-NH2)][ξPip][ξAsp(βξ-Me)][ξD]G[ξD]G[ξAbu(3ξ-NH2)][ξV][ξP]; lactam 3-C)",0.5
13,"CCCCCCCCCC(=O)Nc1cccc(CC(=O)NC(CC(=O)O)C(=O)NC2C(=O)N3CCCCC3C(=O)NC(C(C)C(=O)O)C(=O)NC(CC(=O)O)C(=O)NCC(=O)NC(CC(=O)O)C(=O)NCC(=O)NC(C(C)N)C(=O)NC(C(C)C)C(=O)N3CCCC3C(=O)NC2C)c1 (stereo not drawn) [Compound 113, C10-(M-Apa)-Amphomycin] (Decanoyl-[Phac(3-amino)]D[ξAbu(βξ-NH2)][Pip][ξAsp(βξ-Me)]DGDG[ξAbu(3ξ-NH2)]VP; lactam 3-C; configuration not given here)",16

# Same assay, conditions: S. aureus (MSSA), CAMHB supplemented with 0.625 mM calcium, 24 hours at about 37° C.; a range = compound tested multiple times
row,Structure (SMILES),MIC [µg/mL]
1,"CCCCCCCCCCCC(=O)Nc1ccc(CCC(=O)Nc2ccc(CCC(=O)NC(CC(=O)O)C(=O)NC3C(=O)N4CCCCC4C(=O)NC(C(C)C(=O)O)C(=O)NC(CC(=O)O)C(=O)NCC(=O)NC(CC(=O)O)C(=O)NCC(=O)NC(C(C)N)C(=O)NC(C(C)C)C(=O)N4CCCC4C(=O)NC3C)cc2)cc1 (stereo not drawn) [Compound 109, C12-(p-Aminophenylpropanoyl)2-Amphomycin] (Lauroyl-[X2][X2]D[ξAbu(βξ-NH2)][Pip][ξAsp(βξ-Me)]DGDG[ξAbu(3ξ-NH2)]VP; lactam 4-C; configuration not given here)",2
